One molecule from patent publication US20250136610A1, “CRYSTALLINE FORMS OF TRILACICLIB AND TRILACICLIB SALTS” (TEVA PHARMACEUTICALS INTERNATIONAL GMBH, priority 2022, published 2025) can be followed below.

Common to all, as to type: physicochemical
A short description of series [1]: Thermal stability (heating up to 100° C., XRPD). As to conditions: heating 100° C., 30 minutes. On the procedure:
(§1) X-ray diffraction was performed on X-Ray powder diffractometer: Bruker D8 Advance; CuKα radiation (λ=1.5418 Å); Lynx eye detector; laboratory temperature 22-25° C.; PMMA specimen holder ring with silicon low background. Prior to analysis, the samples were gently ground by means of mortar and pestle in order to obtain a fine powder. The ground sample was adjusted into a cavity of the sample holder and the surface of the sample was smoothed by means of a cover glass.
(§2) • Scan range: 2-40 degrees 2-theta; • Scan mode: continuous; • Step size: 0.05 degrees; • Time per step: 0.5 s; • Sample spin: 30 rpm; • Sample holder: PMMA specimen holder ring with silicon low background. • All X-Ray Powder Diffraction peak values are calibrated with regard to standard silicon spiking in the sample. ssNMR Method:
A sample of Trilaciclib citrate Form TCT3 was subjected to heating up to 100° C. for 30 minutes.

Series [2] in a line: Storage stability at different relative humidities and temperatures, months (XRPD). On the procedure:
as §1, §2
Samples of Trilaciclib citrate Form TCT3 were subjected to conditions of different relative humidities at different temperatures. XRPD analysis was performed on the samples after 2 months.
Form TCT3 of Trilaciclib citrate was also found to be stable for at least 2 months at 2-8° C. Moreover, Form TCT3 is stable for at least 3 months at room temperature and humidity.

The nature of series [3]: Grinding experiments (strong grinding and solvent drop grinding, XRPD). As to conditions: 2 minutes. Here is the method:
as §1, §2
Samples of Trilaciclib citrate Form TCT3 were subjected to strong grinding, and to solvent drop grinding in isopropanol, ethanol and water. Grinding was carried out on the samples alone, or in the presence of ethanol or water. In these experiments, about 20 mg of the sample is placed in a mortar and ground with a pestle for 2 minutes. The solvent, when used, as added to the crystalline material before grinding, in a volume of 10 microliters.

Series [4] in a line: Stability under all tested stress conditions (summary statement). As to conditions: strong grinding, pressure of 2 tons, up to 100% RH for 7 days, up to 100° C.

SMILES strings stand for the structures. Structures can show the parent of a compound that is named as a salt.

Take `CN1CCN(c2ccc(Nc3ncc4cc5n(c4n3)C3(CCCCC3)CNC5=O)nc2)CC1` [Trilaciclib citrate Form TCT3, Trilaciclib citrate salt]: the “Result (XRPD analysis)” value in series [1] is “No polymorphic conversion”. The “time for which the form is stable” value in series [2] (at 2-8° C.) is reported as “at least 2 months”; in series [2] (at room temperature and humidity), “at least 3 months”. In addition, the XRPD analysis results in series [3] (solvent-drop grinding (ethanol), 10 microliters) was “No polymorphic conversion”; in series [3] (solvent-drop grinding (isopropanol), 10 microliters), “No polymorphic conversion”; in series [3] (solvent-drop grinding (water), 10 microliters), “No polymorphic conversion”; in series [3] (strong grinding, no solvent), “No polymorphic conversion”. In addition, the “stability under stress conditions” value in series [4] is “stable under all tested stress conditions”.
